Source: ChEMBL document CHEMBL1201862, “PubChem BioAssay data set” (2004)
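Method: 48-hour compound exposure of cells in 96-well plates, five concentrations, linear interpolation of endpoints. GI50 is the concentration that inhibits growth by half.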 Calls of active or inactive are those of the source. No stated cut-off is given here; in the data, active = GI50 up to about 1.1 µM and inactive = higher.

How the values were obtained:
Experiment in all cases: NCI-60 cell line screen, 48 h
NCI-H522 = tested on: NCI-H522
NCI/ADR-RES = tested on: NCI/ADR-RES
SN12C = tested on: SN12C
ACHN = tested on: ACHN
A549 = tested on: A549
HCT-116 = tested on: HCT-116
K562 = tested on: K562
MDA-MB-435 = tested on: MDA-MB-435
HL-60 = tested on: HL-60
NCI-H23 = tested on: NCI-H23
OVCAR-4 = tested on: OVCAR-4
RXF 393 = tested on: RXF 393
SF-295 = tested on: SF-295
A498 = tested on: A498
OVCAR-3 = tested on: OVCAR-3
U-251 = tested on: U-251
COLO 205 = tested on: COLO 205
SF-539 = tested on: SF-539
TK-10 = tested on: TK-10
OVCAR-8 = tested on: OVCAR-8

Measured: GI50

O=c1c(Nc2ccccc2)cn(CCOc2ccccc2)c(=O)n1CCOc1ccccc1
inactive: NCI-H522 29.1 µM | NCI/ADR-RES 47.2 µM | SN12C > 100 µM | ACHN 37.7 µM | A549 91.8 µM | HCT-116 > 100 µM | K562 > 100 µM | MDA-MB-435 > 100 µM | HL-60 > 100 µM | NCI-H23 33.4 µM | OVCAR-4 19.8 µM | RXF 393 48.4 µM | SF-295 52.5 µM | A498 > 100 µM | OVCAR-3 35.9 µM | U-251 > 100 µM | COLO 205 69.3 µM

Cn1/c(=N\S(=O)(=O)c2ccccc2)[nH]c2ccccc21
inactive: SF-539 > 100 µM | NCI-H522 > 100 µM | NCI/ADR-RES 91.8 µM | SN12C > 100 µM | ACHN > 100 µM | A549 > 100 µM | HCT-116 > 100 µM | K562 > 100 µM | TK-10 > 100 µM | MDA-MB-435 > 100 µM | HL-60 > 100 µM | NCI-H23 > 100 µM | OVCAR-4 > 100 µM | RXF 393 > 100 µM | SF-295 > 100 µM | A498 > 100 µM | U-251 > 100 µM | COLO 205 > 100 µM | OVCAR-8 > 100 µM

CC1(CF)SCc2nc3ccccc3n21 (stereo unspecified)
inactive: SF-539 > 100 µM | NCI-H522 > 100 µM | NCI/ADR-RES > 100 µM | SN12C > 100 µM | ACHN > 100 µM | A549 > 100 µM | HCT-116 > 100 µM | TK-10 > 100 µM | MDA-MB-435 > 100 µM | HL-60 > 100 µM | NCI-H23 > 100 µM | RXF 393 > 100 µM | SF-295 > 100 µM | A498 > 100 µM | OVCAR-3 > 100 µM | U-251 > 100 µM | COLO 205 > 100 µM | OVCAR-8 > 100 µM

CCCCCCCCCCCCNC(C)=O
inactive: SF-539 16.3 µM | NCI-H522 14 µM | NCI/ADR-RES 17.3 µM | SN12C 16.6 µM | ACHN 23.2 µM | A549 27 µM | HCT-116 17.9 µM | TK-10 13.7 µM | MDA-MB-435 18.2 µM | NCI-H23 15.7 µM | RXF 393 18.9 µM | SF-295 17.7 µM | A498 20 µM | OVCAR-3 17.7 µM | U-251 15.4 µM | COLO 205 17.7 µM | OVCAR-8 18.9 µM

C1=N/CCNCCNCC/N=C/c2ccccc2OCc2cccc(n2)COc2ccccc2/1
inactive: SF-539 26.1 µM | NCI-H522 37.8 µM | NCI/ADR-RES 23.1 µM | SN12C 43.8 µM | ACHN 28.6 µM | A549 > 100 µM | HCT-116 61 µM | K562 24.7 µM | MDA-MB-435 11.3 µM | HL-60 28 µM | NCI-H23 86.3 µM | OVCAR-4 47 µM | RXF 393 30.3 µM | SF-295 26.4 µM | A498 > 100 µM | OVCAR-3 30.1 µM | U-251 26.7 µM | COLO 205 > 100 µM | OVCAR-8 28.6 µM

CSc1nc(SC)c2c(CO)c(Br)n(Cc3ccccc3)c2n1
inactive: SF-539 12.2 µM | NCI-H522 14.2 µM | NCI/ADR-RES 24.7 µM | SN12C 35.4 µM | ACHN 15.3 µM | A549 29.8 µM | HCT-116 26.4 µM | TK-10 21.8 µM | MDA-MB-435 > 100 µM | HL-60 > 100 µM | NCI-H23 30.7 µM | OVCAR-4 16.1 µM | RXF 393 28 µM | SF-295 20.7 µM | A498 4.32 µM | OVCAR-3 29.5 µM | U-251 12.6 µM | COLO 205 > 100 µM | OVCAR-8 18 µM

O=C1c2cccc3cccc(c23)C2NCCCN12 (stereo unspecified)
inactive: NCI-H522 28.8 µM | NCI/ADR-RES 99.1 µM | SN12C > 100 µM | ACHN 68.7 µM | A549 > 100 µM | HCT-116 > 100 µM | K562 70.3 µM | TK-10 > 100 µM | MDA-MB-435 > 100 µM | HL-60 > 100 µM | NCI-H23 > 100 µM | OVCAR-4 > 100 µM | RXF 393 42.4 µM | SF-295 > 100 µM | A498 > 100 µM | OVCAR-3 > 100 µM | U-251 > 100 µM | COLO 205 > 100 µM | OVCAR-8 > 100 µM

OC[C@]1(n2nc3ccccc3n2)OC[C@@H]1c1ccccc1
inactive: SF-539 25.2 µM | NCI-H522 20.1 µM | NCI/ADR-RES 57.3 µM | SN12C 43.1 µM | ACHN 36.6 µM | A549 64.3 µM | HCT-116 30.4 µM | K562 56.9 µM | TK-10 60.4 µM | MDA-MB-435 32.2 µM | HL-60 31.4 µM | NCI-H23 48.2 µM | OVCAR-4 16.9 µM | SF-295 83.4 µM | A498 60.5 µM | OVCAR-3 21.7 µM | U-251 48.4 µM | COLO 205 55.5 µM | OVCAR-8 51.5 µM

COC(=O)C12OC3CO[Si](C(C)C)(C(C)C)O[Si](C(C)C)(C(C)C)OC3C1Oc1nc(=O)ccn12 (stereo unspecified)
inactive: SF-539 16.4 µM | NCI/ADR-RES 15.6 µM | SN12C 17.9 µM | ACHN 17.9 µM | A549 15.2 µM | HCT-116 16.1 µM | K562 15.4 µM | TK-10 17.1 µM | MDA-MB-435 17.1 µM | HL-60 23.4 µM | NCI-H23 15.5 µM | OVCAR-4 17.1 µM | RXF 393 16.6 µM | SF-295 16 µM | A498 23.7 µM | OVCAR-3 15.8 µM | U-251 16.1 µM | COLO 205 18.7 µM | OVCAR-8 15.5 µM

CC(=O)Nc1ccc(S(=O)(=O)Nc2nnc(S(N)(=O)=O)s2)cc1
inactive: SF-539 > 100 µM | NCI-H522 > 100 µM | NCI/ADR-RES > 100 µM | ACHN > 100 µM | A549 > 100 µM | HCT-116 > 100 µM | TK-10 > 100 µM | MDA-MB-435 > 100 µM | HL-60 > 100 µM | NCI-H23 > 100 µM | OVCAR-4 > 100 µM | RXF 393 > 100 µM | SF-295 > 100 µM | A498 > 100 µM | U-251 > 100 µM | COLO 205 > 100 µM

Oc1ccc(-c2nc3ccccc3s2)cc1
inactive: SF-539 47.8 µM | NCI-H522 15.5 µM | NCI/ADR-RES 31.8 µM | SN12C 38 µM | ACHN 45.8 µM | A549 41.3 µM | HCT-116 22.4 µM | K562 29 µM | MDA-MB-435 37.2 µM | HL-60 30.3 µM | NCI-H23 25.2 µM | OVCAR-4 48.1 µM | RXF 393 24 µM | SF-295 37.5 µM | A498 47.4 µM | OVCAR-3 34.5 µM | U-251 42.4 µM | COLO 205 45.1 µM | OVCAR-8 30.6 µM
